Antibiotic susceptibility data for nine compounds are collected here from patent publication US12502362B2, “Inhibitors of nucleotidyltransferase superfamily enzymes as antibiotics” (priority 2017, dated 2025).

Common to all, as to type: cell-based
The subject of one experiment is Morganella morganii. In words: Antibiotic susceptibility of Morganella morganii strain. The settings on record: Mm1 (Morganella morganii). An excerpt: (§1) All these MDR-bacteria are at least resistant to two classes of the antibiotics among five groups and/or specific antibiotics including quinolones/fluorquinolones, carbapenems, cephalosporins, aminoglycosides and piperacillin-tazobactam.

The subject of experiment [1] is Enterobacter cloacae complex. Nature of the experiment: Antibiotic susceptibility of Enterobacter cloacae complex strain. To be noted: Ecc1 (Enterobacter cloacae complex).
From the text: as §1

Experiment [2] relates to MDR Acinetobacter baumannii.
From the text: as §1

Another experiment concerns MDR E. coli.
From the text: as §1

The next experiment relates to Klebsiella pneumonia. Nature of the experiment: Antibiotic susceptibility of Klebsiella pneumonia strains.
From the text: as §1

Another experiment deals with Citrobacter koseri. Nature of the experiment: Antibiotic susceptibility of Citrobacter koseri strain. To be noted: Ck1 (Citrobacter koseri).
From the text: as §1

Read-outs that look alike come from different tables or passages of the source.

With `CC(C)(O/N=C(\C(=O)N[C@@H]1C(=O)N2C(C(=O)[O-])=C(C[n+]3ccccc3)CS[C@H]12)c1csc(N)n1)C(=O)O` [CAZ, Ceftazidime], the Antibiotic susceptibility entry (in the experiment with Morganella morganii; in experiment [1]; in experiment [2] (Ab1 (Acinetobacter baumannii)); in experiment [2] (Ab2 (Acinetobacter baumannii)); in experiment [2] (Ab3 (Acinetobacter baumannii)); in experiment [2] (Ab4 (Acinetobacter baumannii))) was “R” throughout. The Antibiotic susceptibility result (in experiment [2] (Ab5 (Acinetobacter baumannii)); in the experiment on MDR E. coli (Ec1 (E. coli)); in the experiment on MDR E. coli (Ec2 (E. coli)); in the experiment on MDR E. coli (Ec3 (E. coli)); with MDR E. coli (Ec4 (E. coli)); in the experiment on MDR E. coli (Ec5 (E. coli))) was “R” each time. Besides, the Antibiotic susceptibility result in the experiment with Klebsiella pneumonia (Kp1 (Klebsiella pneumonia)), in the experiment with Klebsiella pneumonia (Kp6 (Klebsiella pneumonia)) and in the experiment with Citrobacter koseri was “R” in each case.

As for `CO/N=C(\C(=O)N[C@@H]1C(=O)N2C(C(=O)O)=C(CSc3nc(=O)c(=O)[nH]n3C)CS[C@H]12)c1csc(N)n1` [CRO, Ceftriaxone], the Antibiotic susceptibility entry was “I” in the experiment with Morganella morganii; “R” in experiment [1]; “R” in experiment [2] (Ab1 (Acinetobacter baumannii)); “R” in experiment [2] (Ab2 (Acinetobacter baumannii)); “R” in experiment [2] (Ab3 (Acinetobacter baumannii)); “R” in experiment [2] (Ab4 (Acinetobacter baumannii)). The Antibiotic susceptibility entry (in experiment [2] (Ab5 (Acinetobacter baumannii)); in the experiment with MDR E. coli (Ec1 (E. coli)); in the experiment with MDR E. coli (Ec2 (E. coli)); in the experiment with MDR E. coli (Ec3 (E. coli)); with MDR E. coli (Ec4 (E. coli)); in the experiment on MDR E. coli (Ec5 (E. coli))) was “R” throughout. Also, the Antibiotic susceptibility entry is “R” in the experiment with Klebsiella pneumonia (Kp1 (Klebsiella pneumonia)), “R” in the experiment with Klebsiella pneumonia (Kp6 (Klebsiella pneumonia)) and “S” with Citrobacter koseri.

As to `C[C@@H](O)[C@H]1C(=O)N2C(C(=O)O)=C(S[C@@H]3CN[C@H](C(=O)Nc4cccc(C(=O)O)c4)C3)[C@H](C)[C@H]12` [ETP, Ertapenem], the Antibiotic susceptibility result (in the experiment on Morganella morganii; in experiment [1]; with MDR E. coli (Ec1 (E. coli)); in the experiment on MDR E. coli (Ec2 (E. coli)); in the experiment on MDR E. coli (Ec3 (E. coli)); with MDR E. coli (Ec4 (E. coli))) was “S” throughout. In addition, the Antibiotic susceptibility entry in the experiment on MDR E. coli (Ec5 (E. coli)), in the experiment on Klebsiella pneumonia (Kp1 (Klebsiella pneumonia)), in the experiment with Klebsiella pneumonia (Kp6 (Klebsiella pneumonia)) and in the experiment on Citrobacter koseri was “S” in each case.

With `CO/N=C(\C(=O)N[C@@H]1C(=O)N2C(C(=O)[O-])=C(C[N+]3(C)CCCC3)CS[C@H]12)c1csc(N)n1` [FEP, Cefepime], the Antibiotic susceptibility result in the experiment on Morganella morganii is given as “S”; in experiment [2] (Ab1 (Acinetobacter baumannii)), “R”; in experiment [2] (Ab2 (Acinetobacter baumannii)), “R”; in experiment [2] (Ab3 (Acinetobacter baumannii)), “R”; in experiment [2] (Ab4 (Acinetobacter baumannii)) it was “R”; in experiment [2] (Ab5 (Acinetobacter baumannii)), “R”. The Antibiotic susceptibility result in the experiment on MDR E. coli (Ec1 (E. coli)), in the experiment on MDR E. coli (Ec2 (E. coli)), with MDR E. coli (Ec3 (E. coli)), with MDR E. coli (Ec4 (E. coli)), with MDR E. coli (Ec5 (E. coli)) and in the experiment with Klebsiella pneumonia (Kp1 (Klebsiella pneumonia)) was “R” each time. The Antibiotic susceptibility entry in the experiment with Klebsiella pneumonia (Kp6 (Klebsiella pneumonia)) is “R”; in the experiment with Citrobacter koseri, “S”.

On to `C[C@@H](O)[C@H]1C(=O)N2C(C(=O)O)=C(SCCN=CN)C[C@H]12` [IPM, Imipenem], for which the Antibiotic susceptibility entry in the experiment on Morganella morganii is “S”; in experiment [1], “S”; in experiment [2] (Ab1 (Acinetobacter baumannii)), “S”; in experiment [2] (Ab2 (Acinetobacter baumannii)), “I”; in experiment [2] (Ab3 (Acinetobacter baumannii)) it was “I”; in experiment [2] (Ab4 (Acinetobacter baumannii)), “I”. In addition, the Antibiotic susceptibility entry is reported as “R” in experiment [2] (Ab5 (Acinetobacter baumannii)); “S” with MDR E. coli (Ec1 (E. coli)); “S” in the experiment with MDR E. coli (Ec2 (E. coli)); “S” in the experiment on MDR E. coli (Ec3 (E. coli)); “S” with MDR E. coli (Ec4 (E. coli)); “S” in the experiment on MDR E. coli (Ec5 (E. coli)). For the same compound, the Antibiotic susceptibility result in the experiment with Klebsiella pneumonia (Kp1 (Klebsiella pneumonia)), with Klebsiella pneumonia (Kp6 (Klebsiella pneumonia)) and with Citrobacter koseri was “S” throughout.

Turning to `C[C@@H](O)[C@H]1C(=O)N2C(C(=O)O)=C(S[C@@H]3CN[C@H](C(=O)N(C)C)C3)[C@H](C)[C@H]12` [MEM, Meropenem], the Antibiotic susceptibility result (in experiment [1]; in the experiment with MDR E. coli (Ec1 (E. coli)); in the experiment with MDR E. coli (Ec2 (E. coli)); with MDR E. coli (Ec3 (E. coli)); with MDR E. coli (Ec4 (E. coli)); in the experiment with MDR E. coli (Ec5 (E. coli))) was “S” each time. The Antibiotic susceptibility result in the experiment with Klebsiella pneumonia (Kp1 (Klebsiella pneumonia)) and in the experiment on Citrobacter koseri was “S” throughout.

Take `NC[C@H]1O[C@H](O[C@H]2[C@H](O)[C@@H](O[C@H]3O[C@H](CO)[C@@H](O)[C@H](N)[C@H]3O)[C@H](N)C[C@@H]2N)[C@H](N)C[C@@H]1O` [TOB, Tobramycin]: the Antibiotic susceptibility entry with Morganella morganii is “I”; in experiment [1], “S”; in experiment [2] (Ab1 (Acinetobacter baumannii)), “S”; in experiment [2] (Ab2 (Acinetobacter baumannii)), “S”; in experiment [2] (Ab3 (Acinetobacter baumannii)), “S”; in experiment [2] (Ab4 (Acinetobacter baumannii)) it was “S”. The Antibiotic susceptibility entry in experiment [2] (Ab5 (Acinetobacter baumannii)) is on record as “I”; in the experiment with MDR E. coli (Ec1 (E. coli)) it was “I”; with MDR E. coli (Ec2 (E. coli)) it was “I”; in the experiment on MDR E. coli (Ec3 (E. coli)), “I”; in the experiment on MDR E. coli (Ec4 (E. coli)), “R”; in the experiment on MDR E. coli (Ec5 (E. coli)) it was “R”. The Antibiotic susceptibility entry is given as “S” in the experiment with Klebsiella pneumonia (Kp1 (Klebsiella pneumonia)), “R” with Klebsiella pneumonia (Kp6 (Klebsiella pneumonia)) and “I” in the experiment on Citrobacter koseri.

For the compound Amoxicillin-clavulanic acid [AMC], the Antibiotic susceptibility entry (in the experiment with Morganella morganii; in experiment [1]; in experiment [2] (Ab1 (Acinetobacter baumannii)); in experiment [2] (Ab2 (Acinetobacter baumannii)); in experiment [2] (Ab3 (Acinetobacter baumannii)); in experiment [2] (Ab4 (Acinetobacter baumannii))) was “R” in each case. The Antibiotic susceptibility result in experiment [2] (Ab5 (Acinetobacter baumannii)) is “S”; with MDR E. coli (Ec1 (E. coli)), “S”; in the experiment on MDR E. coli (Ec2 (E. coli)), “S”; in the experiment on MDR E. coli (Ec3 (E. coli)), “S”; in the experiment on MDR E. coli (Ec4 (E. coli)) it was “S”; with MDR E. coli (Ec5 (E. coli)), “I”. Besides, the Antibiotic susceptibility result in the experiment on Klebsiella pneumonia (Kp1 (Klebsiella pneumonia)) is “S”; with Klebsiella pneumonia (Kp6 (Klebsiella pneumonia)), “I”; in the experiment with Citrobacter koseri, “I”.

With Piperacillin-tazobactam [TZP], the Antibiotic susceptibility result in the experiment on Morganella morganii is given as “S”; in experiment [1], “R”; in experiment [2] (Ab3 (Acinetobacter baumannii)), “R”; in the experiment with MDR E. coli (Ec1 (E. coli)), “S”; with MDR E. coli (Ec2 (E. coli)), “S”; with MDR E. coli (Ec3 (E. coli)) it was “S”. Further, the Antibiotic susceptibility result in the experiment on MDR E. coli (Ec4 (E. coli)) was “S”; with MDR E. coli (Ec5 (E. coli)) it was “S”; in the experiment with Klebsiella pneumonia (Kp1 (Klebsiella pneumonia)), “S”; in the experiment with Klebsiella pneumonia (Kp6 (Klebsiella pneumonia)), “R”; in the experiment with Citrobacter koseri, “I”.
